Assay results published in US20080207671A1, “Diagnosis and treatment of diseases arising from defects in the tuberous sclerosis pathway” (The Regents of the University of Michigan, priority 2006, published 2008).
Entries after “also recorded” stand apart in the source; their conditions may differ.

Experiments:
AMPK = conditions: Corton et al.; cited from earlier work
[1] = system: eukaryotic elongation factor 2 (eEF2); conditions: Horman et al.; cited from earlier work
S6K and 4EBP1 = conditions: Kimura et al.; Krause et al.; cited from earlier work
TSC2 = test: TSC2/TSC1 phosphorylation in transfected HEK293 cells (mobility shift, 32P labelling, two-dimensional phosphopeptide mapping); assay type: cell-based, human; conditions: 10 μM, added 30 minutes before 2-DG, HEK293
Method: (§1) HEK293 cells were seeded and maintained in Dulbecco's modified Eagle's medium (DMEM) containing 10% fetal bovine serum (FBS). Transfection was performed in serum-free conditions using Lipofectamine reagent (Invitrogen, Carlsbad, Calif.) in accordance with the manufacturer's instructions. In brief, 4 h after transfection, the cells were recovered in DMEM containing 10% FBS for 16 h and then starved for 16-24 h. Cells were then lysed in lysis buffer (10 mM Tris-HCl at pH 7.5, 100 mM sodium chloride, 1% NP-40, 1% Triton X-100, 50 mM sodium fluoride, 2 mM EDTA, 1 mM phenyl methylsulphonyl fluoride, 10 μg ml^−1 leupeptin and 10 μg ml^−1 aprotinine) and immunoprecipitated with the indicated antibodies and protein G-Sepharose beads. Immunocomplexes were analyzed by SDS-polyacrylamide gel electrophoresis (PAGE).
HEK293 cells were cotransfected with HA-tagged TSC2, Myc-tagged TSC1 and the indicated plasmids. Cells were phosphate- and serum-starved for 4 h before incubation with 0.25 mCi ml^−1 32P-orthophosphate (ICN) for 4 h.
Cells were washed once with ice-cold PBS and lysed. HA-tagged TSC2 was immunoprecipitated, resolved by SDS-PAGE and transferred to a PVDF membrane. Phosphorylated TSC2 was visualized by autoradiography and phosphopeptide mapping was then performed. In brief, the phosphorylated TSC2 bands were excised, fixed in methanol and incubated in 500 μl of 0.5% polyvinylpyrrolidone-40 dissolved in 100 mM acetic acid for 30 min at 37° C. The sample were then digested with 20 μg of TPCK-treated trypsin (Sigma) at 37° C. in 75 mM ammonium bicarbonate buffer at pH 8.0 containing 5% acetonitrile. After digestion, samples were dried under vacuum and suspended in 10 μl of water. Samples were spotted onto a cellulose plate and first dimensional electrophoresis was performed using 1% ammonium bicarbonate buffer at pH 8.9. The plates were separated by chromatography in the second dimension in chromatography buffer (n-butanol:pyridine:acetic acid:water; 20:24:6:30). The plates were dried and phosphopeptides were visualized by autoradiography.

[2] = system: phosphorylation of S6K, S6, 4EBP1 and mTOR; test: Immunoblot of S6K, S6, 4EBP1 and mTOR phosphorylation in HEK293 cells under energy depletion; assay type: cell-based, human; conditions: for phosphorylation of S6K and 4EBP1: depletion of cellular ATP
Method: as §1

Akt phosphorylation = test: Immunoblot of Akt phosphorylation in HEK293 cells; assay type: cell-based, human; conditions: AMPK inhibitor treatment
Method: as §1

[3] = system: LEF (TSC2−/− epithelial) cells; test: Cell death / apoptosis of LEF cells (vector, TSC2, TSC2-3A); assay type: cell-based; conditions: vector and wild type TSC2 expressing LEF cells
Method: FIGS. 16a-16f show TSC2 plays roles in protecting cells from glucose depletion-induced apoptosis. […] LEF cells stably expressing vector, TSC2, or TSC2-3A were cultured in 25 mM glucose (G+) or glucose free medium (G−) with or without 20 nM rapamycin. Pictures were taken at 72 hours in culture. Note that the TSC2 wild type expressing cells are morphologically smaller. […] LEF cells stably expressing vector, TSC2 or TSC2-3A were cultured in glucose free medium with or without 20 nM rapamycin for 48 hours. Western blots with anti-cleaved-caspase-3 and actin are shown. […] EEF cells were cultured in glucose free medium with or without 20 nM rapamycin for 96 hours. […] The EEF4 and EEF8 cells were cultured in glucose free medium with or without 20 nM rapamycin for 72 hours. Western blots with cleaved-caspase-3 and actin are shown. […] The MEFs were cultured in glucose free medium for 48 hours. […] MEFs were cultured in glucose free medium with or without 20 nM rapamycin for 16 hours. Western blots with cleaved-caspase-3 and actin are shown.

EEF4 (TSC2+/+) cells = test: S6K and 4EBP1 phosphorylation in EEF4 (TSC2+/+) fibroblasts; assay type: cell-based
S6K-dC104 = test: Phosphorylation and kinase activity of rapamycin-resistant S6K mutants (S6K-dC104, S6K-dNC); assay type: cell-based
Method: as §1
For the S6K assays, HEK293 cells grown in six-well plates were transfected with 10-20 ng HA-S6K constructs, with or without various plasmids, as indicated in the figures. HA-S6K was immunoprecipitated from serum-starved cells with an anti-HA antibody and analyzed by in vitro kinase assay using purified GST-S6 as a substrate (Pearson et al., EMBO J. 14:5279-5287 (1995)).

db/db mice [4] = assay type: in vivo; conditions: 16 weeks treatment
Method: m+/+ Lepr db (db/+) mice were obtained from The Charles River Japan and mated, +Lepr db/+ Lepr db mice (db/db) mice were generated.
Mice were randomly divided into four groups as follows: nondiabetic db/+; nondiabetic db/+ treated with Rapamycin; diabetic db/db: and diabetic db/db treated with Rapamycin (2.0 mg/kg body weight, 3 days/week). Rapamycin was injected intraperitoneally (i.p.) from the age of 8 weeks to 25 weeks or 16 weeks to 25 weeks. Blood glucose levels and body weight were determined weekly in all animals. Mice were housed in a 12 hr light/dark cycle and temperature-controlled environment. […]
At age 25 weeks, kidney was isolated from db/db and db/+ mice (n=10 for each group), and total RNA was purified. The expression of fibronectin and α3-type IV collagen mRNA by real-time reverse transcriptase-polymerase chain reaction (RT-PCR), which was performed in an ABI 7700 sequence detector (Applied Biosystems), was quantified. […] For quantitative RT-PCR of UCP-1, BAT (brown adipose tissue) was isolated from 2 weeks rapamycin treated or untreated mice, primers used were described previously (see, e.g., Um S H, et al., Nature 431, 200-205, 2004; herein incorporated by reference in its entirety). Data were normalized to GAPDH and analyzed by the comparative threshold cycle method. […]
Data were expressed as the means±SEM. […]

db/db mice [5] = test: Diabetic nephropathy in db/db mice: glomerular morphometry, gene expression, urinary albumin; assay type: in vivo; conditions: rapamycin for 8 weeks from 16 weeks of age
Method: Mice were randomly divided into four groups as follows: nondiabetic db/+; nondiabetic db/+ treated with Rapamycin; diabetic db/db: and diabetic db/db treated with Rapamycin (2.0 mg/kg body weight, 3 days/week). Rapamycin was injected intraperitoneally (i.p.) from the age of 8 weeks to 25 weeks or 16 weeks to 25 weeks. Blood glucose levels and body weight were determined weekly in all animals. Mice were housed in a 12 hr light/dark cycle and temperature-controlled environment. Animal care and all experiments were conducted in accordance with the institutional guidelines of the Kyushu University Graduate School of Medicine.
Seventeen weeks after treatment with rapamycin (25 week of age), mice were deeply anesthetized, after perfusion with ice-cold PBS, the kidneys were perfused with 4% paraformaldehyde. […] To quantify mesangial expansion, sections were coded and read. […] The extent of increase in mesangial matrix (defined as mesangial area) was determined by the presence of PAS-positive and nuclei-free area in the mesangium; the glomerular surface area has been measured using standard measurements of glomerular tuft areas using a the computer program of Axiovision Auto Mesure.
At age 25 weeks, kidney was isolated from db/db and db/+ mice (n=10 for each group), and total RNA was purified. […] Data were normalized to GAPDH and analyzed by the comparative threshold cycle method. […]

[6] = target: GST-TSC2 fragment 1 (amino acids 910-1112) (UniProt P49816)
[7] = target: GST-TSC2 fragment 2 (amino acids 1357-1765) (UniProt P49816)
[8] = target: TSC2 fragment containing S1345 (UniProt P49816)
TSC2-F2 fragment = TSC2-F2 fragment (UniProt P49816)

NC(=O)c1ncn([C@@H]2O[C@H](COP(=O)(O)O)[C@@H](O)[C@H]2O)c1N [AICAR, 5-aminoimidazole-4-carboxyamide ribonucleotide]
AMPK activation (AMPK): activate AMPK | phosphorylation of eEF2 [1]: increase phosphorylation | S6K activity (S6K and 4EBP1): inhibit S6K activity

c1cc(-c2cnn3cc(-c4ccc(OCCN5CCCCC5)cc4)cnc23)ccn1 [Compound C]
mobility of TSC2 / 2-DG induced mobility shift (TSC2): blocks the 2-DG induced mobility shift of TSC2 | mobility of TSC2 / 2-DG induced mobility shift (TSC2; listed as compound C): increased the mobility of TSC2 | effect on 2-DG induced dephosphorylation of S6K ([2]; HEK 293, with 2-DG, listed as AMPK inhibitor): significantly reversed the inhibitory effect of 2-DG on S6K phosphorylation; also recorded: blocks the 2-DG induced dephosphorylation of S6K | S6K dephosphorylation induced by glucose deprivation ([2]; glucose deprivation, listed as AMPK inhibitor): significantly blocked; also recorded: partially blocks | Akt phosphorylation (Akt phosphorylation): had no effect

COc1cc([C@@H]2c3cc4c(cc3[C@@H](O[C@@H]3O[C@@H]5CO[C@@H](C)O[C@H]5[C@H](O)[C@H]3O)[C@H]3COC(=O)[C@H]23)OCO4)cc(OC)c1O [Etoposide]
cell death [3]: caused cell death in both vector and wild type TSC2 expressing cells

N#CC(C#N)=NNc1ccc(OC(F)(F)F)cc1 [FCCP]
phosphorylation of S6K and 4EBP1 [2]: caused a dephosphorylation of S6K and 4EBP1 | S6K phosphorylation (EEF4 (TSC2+/+) cells): caused a decrease in S6K phosphorylation

CC(=O)c1c(O)c(C)c(O)c(Cc2c(O)c3c(c(C(=O)/C=C/c4ccccc4)c2O)OC(C)(C)C=C3)c1O [Rottlerin]
phosphorylation of S6K and 4EBP1 [2]: caused a dephosphorylation of S6K and 4EBP1 | S6K phosphorylation (EEF4 (TSC2+/+) cells): caused a decrease in S6K phosphorylation

OC[C@@H](O)[C@@H](O)[C@H](O)[C@H](O)CO [mannitol]
phosphorylation of S6K on T389 ([2]; 25 mM): had little effect | phosphorylation of S6K ([2]; 100 mM): significantly inhibited

CO[C@H]1C[C@@H]2CC[C@@H](C)[C@@](O)(O2)C(=O)C(=O)N2CCCC[C@H]2C(=O)O[C@H]([C@H](C)C[C@@H]2CC[C@@H](O)[C@H](OC)C2)CC(=O)[C@H](C)/C=C(\C)[C@@H](O)[C@@H](OC)C(=O)[C@H](C)C[C@H](C)/C=C/C=C/C=C/1C [rapamycin]
phosphorylation of Thr 389 in S6K-dC104 (S6K-dC104): not inhibited | increase in oxygen consumption versus db/db untreated mice (db/db mice [4]): 3.27 folds | amount of albumin excreted relative to the starting point (16w; db/db) (db/db mice [5]): 60%

GST-Akt
in vitro phosphorylation by purified Akt [6]: Wild-type Akt, but not the kinase-inactive Akt-KM mutant, efficiently phosphorylated both fragment 1 and fragment 2 of TSC2 in vitro | in vitro phosphorylation by purified Akt [7]: Wild-type Akt, but not the kinase-inactive Akt-KM mutant, efficiently phosphorylated both fragment 1 and fragment 2 of TSC2 in vitro

immunoprecipitated AMPK (in vitro kinase assay)
in vitro phosphorylation by immunoprecipitated AMPK [8]: The TSC2 fragment was phosphorylated by immunoprecipitated AMPK, but not the kinase inactive AMPK mutant | in vitro phosphorylation by immunoprecipitated AMPK (TSC2-F2 fragment): In vitro phosphorylation of the purified TSC2-F2 fragment by immunoprecipitated AMPK showed that AMPK specifically phosphorylates TSC2 on T1227
